The results in this text go back to PMC12064818, “A general assay platform to study protein pharmacology using ligand-dependent structural dynamics” (Nature Communications, 2025).

One may read the IC50 as the midpoint of a concentration-inhibition curve. A word on the EC50: it is the concentration that produces a half-maximal response. Read a low EC50 as an effect from little substance.

“And” between values parts separate entries of the source, which are not always exact repeats. Identical values can stand only once. Like-named read-outs stand apart in the source and are kept apart here.

One assay has as its target P. pyralis FLuc (Photinus pyralis, UniProt P08659). Put plainly: FLuc enzymatic luminescence assay, P. pyralis FLuc. The format is biochemical. Conditions: FLuc enzymatic assay. A digest of the protocol:
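Runs with and without 10 µM ATP: compounds were pre-incubated with FLuc (1–10 nM, PBS pH 7.4) at ambient temperature, light-protected, for 30–60 min. Luminescence was imaged 5 min after adding 10 µM D-luciferin (final). Inhibition was scaled between DMSO neutral and no-enzyme controls.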

The target of the next assay is C. elegans iPGM-C-HiBiT (Caenorhabditis elegans, UniProt G5EFZ1). Description: C. elegans iPGM fluorescent polarization competition-binding assay (Ce-2d-FL probe). More on the design: cDNA, containing Phe2-Ile539 and the 6xHis tag; His6 (C); made in house; host or cells: E. coli. Here is the method:
All reagents were prepared on ice, protected from light. […] Compounds and controls were added with a pintool to each plate as described in Supplementary Data 8. Assay plates were incubated for 20 min at ambient temperature. […] Microtiter plates were allowed to reach equilibrium (30 min incubation at ambient temperature) while protected from light. Fluorescence polarization was measured with the same reader settings as above. Data were row-wise normalized to no enzyme control as -100% activity and enzyme + DMSO vehicle control as neutral control. See Supplementary Table 7 for additional details.
Supplementary Table 7. Protocol for Co- factor independent phosphoglycerate mutase (iPGM) fluorescent polarization competition-biding assay
Supplementary Table 7: Protocol for C. elegans co-factor independent phosphoglycerate m utase (iPGM) fluorescent polarization com petition-binding assay
Sequence Param eter Value Description
No enzym e control (colum n 1) and enzym e solution (10 nM Ce iPGM-C-HiBiT dialyzed 1 Reagent 4 µLagainst Zn/Mn final assay concentration) in assay buffer + 0.05% IGEPAL; black/solid bottom , m edium bind, high base plates (Greiner), dispensed with BioRaptr 2 […]
Test com pounds: m acrocyclic peptides at 5 m M stock concentration in 16- pt, 1:3 titration […]
com pounds transferred to respective colum ns with Pintool
3 Incubation 20 m in Incubate enzym e + com pounds at am bient tem p for 20 m in, protected from light 4 Pre-Read Spark Measure fluorescence polarization of fluorescein (X480, M535) on Spark m ultimode m icroplate reader […]
dispensed with BioRaptr 2
6 Incubation 30 m in Am bient tem perature, protected from light
7 Detector Spark Measure fluorescence polarization of fluorescein (X480, M535) on Spark m ultimode m icroplate reader
Assay buffer: 30 m M Tris-HCl, pH 8.0; 5 m M MgSO4; 20 m M KCl; 0.05% IGEPAL. All solutions filtered through 0.22 1 µm syringe filter prior to dispense.
Measure fluorescence polarization of fluorescein on Spark m ultimode m icroplate reader with FP protocol: Excitation […]
4/7 20.0; G-Factor “Manual” = 1.000; Blank “Not Defined”.
Advanced Settings: Flashes = 30; Gain “Optim al”; Mirror “Autom atic”; Z-position [um ] “Manual” = 20000; Settle Tim e […]
Fluorescence polarization ligand solution: 30 m M Tris-HCl, pH 8.0; 5 m M MgSO4; 20 m M KCl; 0.05% IGEPAL; 15 […]
Solution filtered through 0.22
µm syringe filter prior to dispense.

Assay [1] concerns the target E. coli Lig-N-HiBiT (DNA ligase) (Escherichia coli, UniProt P15042). The note with it: for SDR assay data: 0.5 nM E. coli Lig-N-HiBiT; for SDR assay data / SDR response: Log [ATP]; for SDR response: replicates. A general note: HiBiT is a short tag that completes a luciferase, so light tracks the accessible tagged protein.
The target in assay [2] is T1, ABL1-N-HiBiT kinase domain (Homo sapiens, UniProt P00519).
T1 sequence (P00519 233-500): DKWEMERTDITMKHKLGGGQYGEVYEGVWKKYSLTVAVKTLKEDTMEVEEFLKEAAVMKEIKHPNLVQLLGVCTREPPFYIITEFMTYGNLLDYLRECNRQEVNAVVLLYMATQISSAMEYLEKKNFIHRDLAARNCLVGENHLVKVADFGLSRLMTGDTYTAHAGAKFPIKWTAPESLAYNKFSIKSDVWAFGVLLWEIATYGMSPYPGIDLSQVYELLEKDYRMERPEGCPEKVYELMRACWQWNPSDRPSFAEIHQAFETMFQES
Description: SDR assay, ABL1-N-HiBiT.

Setting [3] is: C. elegans iPGM-C-HiBiT FP 10 nM, ligand […] FP.
[4] abbreviates: E. coli Lig-N-HiBiT (0.5 nM), ligand 100 µM.

E. coli Lig-N-HiBiT (DNA ligase), sequence (P15042 2-671): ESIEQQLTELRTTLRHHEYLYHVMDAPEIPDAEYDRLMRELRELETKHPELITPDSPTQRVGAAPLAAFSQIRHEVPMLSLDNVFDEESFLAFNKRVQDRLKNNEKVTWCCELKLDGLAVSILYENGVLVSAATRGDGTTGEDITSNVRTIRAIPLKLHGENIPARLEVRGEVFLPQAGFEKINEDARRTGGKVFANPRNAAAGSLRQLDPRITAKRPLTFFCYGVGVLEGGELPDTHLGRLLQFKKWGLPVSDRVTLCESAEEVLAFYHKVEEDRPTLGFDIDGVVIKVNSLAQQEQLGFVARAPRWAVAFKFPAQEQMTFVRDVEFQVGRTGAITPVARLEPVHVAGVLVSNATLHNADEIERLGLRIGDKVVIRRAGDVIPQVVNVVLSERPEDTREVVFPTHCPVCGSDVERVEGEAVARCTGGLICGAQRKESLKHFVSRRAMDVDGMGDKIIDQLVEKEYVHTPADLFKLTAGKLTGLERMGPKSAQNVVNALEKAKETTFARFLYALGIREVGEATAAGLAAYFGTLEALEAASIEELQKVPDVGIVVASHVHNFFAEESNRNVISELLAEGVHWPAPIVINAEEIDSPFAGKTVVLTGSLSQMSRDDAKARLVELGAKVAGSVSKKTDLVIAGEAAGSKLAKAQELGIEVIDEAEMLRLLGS
C. elegans iPGM-C-HiBiT, sequence (G5EFZ1 2-539): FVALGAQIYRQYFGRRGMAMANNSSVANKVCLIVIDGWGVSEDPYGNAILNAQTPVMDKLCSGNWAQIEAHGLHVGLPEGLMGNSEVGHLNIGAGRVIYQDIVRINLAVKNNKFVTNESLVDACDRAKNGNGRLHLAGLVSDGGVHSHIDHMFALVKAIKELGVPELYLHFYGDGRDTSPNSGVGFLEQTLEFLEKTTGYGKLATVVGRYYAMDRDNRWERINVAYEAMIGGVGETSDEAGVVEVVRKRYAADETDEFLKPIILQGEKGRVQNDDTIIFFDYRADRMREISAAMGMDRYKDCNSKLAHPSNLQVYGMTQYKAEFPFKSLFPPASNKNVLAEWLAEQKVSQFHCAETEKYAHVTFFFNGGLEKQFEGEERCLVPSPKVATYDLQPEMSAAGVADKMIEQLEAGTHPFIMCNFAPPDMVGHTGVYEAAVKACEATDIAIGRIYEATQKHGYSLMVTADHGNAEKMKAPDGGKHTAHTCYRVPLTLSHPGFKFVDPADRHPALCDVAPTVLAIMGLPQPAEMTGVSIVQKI
P. pyralis FLuc, sequence (P08659 whole entry): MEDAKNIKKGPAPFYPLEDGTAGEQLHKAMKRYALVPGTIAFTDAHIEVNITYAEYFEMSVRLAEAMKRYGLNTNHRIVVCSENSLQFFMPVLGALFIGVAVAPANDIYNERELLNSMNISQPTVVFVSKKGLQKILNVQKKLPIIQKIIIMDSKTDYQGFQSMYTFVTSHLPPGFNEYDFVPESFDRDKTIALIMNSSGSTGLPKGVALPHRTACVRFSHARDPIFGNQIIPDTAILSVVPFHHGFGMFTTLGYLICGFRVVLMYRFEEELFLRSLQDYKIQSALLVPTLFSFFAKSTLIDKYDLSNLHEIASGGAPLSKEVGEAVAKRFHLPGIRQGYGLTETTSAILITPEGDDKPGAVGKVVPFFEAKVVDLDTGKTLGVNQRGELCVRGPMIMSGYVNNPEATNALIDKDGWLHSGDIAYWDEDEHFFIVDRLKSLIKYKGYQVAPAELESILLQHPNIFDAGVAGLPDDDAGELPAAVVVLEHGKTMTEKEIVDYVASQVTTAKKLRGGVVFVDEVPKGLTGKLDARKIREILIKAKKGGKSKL

For the molecule `CC(CNC(=O)C1CCN(C(=O)c2ncn3c2COC(c2ccccc2)C3)CC1)c1ccccc1` (stereo not shown) [compound 00449795], the “Efficacy (%) FLuc E” value on P. pyralis FLuc (Clade S follow-up) is -95.72%. Besides, at P. pyralis FLuc (read-out: IC50 or SDR50 (mM) FLuc E), the IC50 was found to be 0.00197 mM.

At C. elegans iPGM-C-HiBiT, `CC(C)C[C@H](NC(=O)[C@H](Cc1ccc(O)cc1)NC(=O)[C@@H]1CSCC(=O)N[C@H](Cc2ccc(O)cc2)C(=O)N[C@@H](CC(=O)O)C(=O)N[C@@H](Cc2ccc(O)cc2)C(=O)N2CCC[C@H]2C(=O)NCC(=O)N[C@@H](CC(=O)O)C(=O)N[C@@H](Cc2ccc(O)cc2)C(=O)N1)C(=O)N[C@@H](Cc1ccc(O)cc1)C(=O)NCC(=O)N[C@H](C(=O)N[C@@H](CS)C(=O)NCC(N)=O)[C@@H](C)O` [Ce-2] had an IC50 of 34.7 nM. Also, on C. elegans iPGM-C-HiBiT (setting [3]), the “Standard assay statistics Ave RLU” value came out at 67.8 RLU, the “Standard assay statistics S:B” value stood at 1.4, the “Standard assay statistics S:N” value was -2.4 and the “Standard assay statistics Z’” value is given as -0.978.

As for `Nc1ncnc2c1ncn2[C@@H]1O[C@H](COP(=O)(O)OP(=O)(O)OP(=O)(O)O)[C@@H](O)[C@H]1O` [ATP], the SDR assay data in assay [1] (M -2.85) is 49.3 and 51.1 and 44.4; in assay [1] (M -3.15), 28.9 and 34.6 and 36.9; in assay [1] (M -3.45), 8.9 and 17.7 and 9.6. For the same molecule, the “SDR assay response (in words)” value in assay [1] (E. coli Lig-N-HiBiT) is on record as “weak though reproducible SDR output”. In addition, the “SDR assay statistics Ave RLU” value in assay [1] (setting [4]) was 315.5 RLU. In assay [1] (setting [4]), the “SDR assay statistics S:B” value was 1.1. In addition, the “SDR assay statistics S:N” value in assay [1] (setting [4]) is 0.6. Besides, the “SDR assay statistics Z’” value in assay [1] (setting [4]) is -6.013. In addition, the max resp in assay [1] (E. coli Lig-N-HiBiT, maximum response) turned out to be 48.3. In addition, the SDR response is 49.3 and 51.1 and 44.4 in assay [1] (M -2.85); 28.9 and 34.6 and 36.9 in assay [1] (M -3.15); 8.9 and 17.7 and 9.6 in assay [1] (M -3.45); 3.6 and 9.8 and 15.1 in assay [1] (M -3.75); 1.5 and 7.7 and 15.7 in assay [1] (M -4.05); 0.051 and 11.3 and 4.7 in assay [1] (M -4.35). Moreover, the SDR response was 0.8 and 3.9 and 8.7 in assay [1] (M -4.65); -0.949 and 1.5 and 6.8 in assay [1] (M -4.95); -4.0 and 5.1 and 9.7 in assay [1] (M -5.25); -8.9 and 4.7 and 2.7 in assay [1] (M -5.55); -3.0 and -2.8 and 4.9 in assay [1] (M -5.86); -9.9 and -0.326 in assay [1] (M -6.16). In addition, the SDR response in assay [1] (M -6.46) was -6.9 and 3.7; in assay [1] (M -6.76), -8.7 and 1.0 and 4.2. In assay [2], a half-maximal effect (EC50) was put at 24.5 µM.
